From patent US8853246B2 (Dow AgroSciences LLC, priority 2009, dated 2014)
Where two headings read alike, the source gives them in different places.

Assays:
[1] = system: Green Peach Aphid (Myzus Persicae); experiment: Insecticidal test for green peach aphid in foliar spray assay (col. MYZUPE); format: in vivo; details: Myzus persicae, 72 h, read-out: MYZUPE 200 ppm (Corrected % Control, rating)
Procedure, shortened: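 Cabbage seedlings with 2-3 true leaves, infested with 20-50 wingless adult and nymph aphids one day earlier, sprayed to runoff at 200 ppm (acetone/methanol stock diluted in 0.025% Tween 20), four pots per treatment. After 3 days at ~25 °C, 40% RH, live aphids counted; corrected % control versus solvent-sprayed plants.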

[2] = system: Sweetpotato Whitefly-Crawler (Bemisia Tabaci); experiment: Insecticidal test for sweetpotato whitefly-crawler in foliar spray assay (col. BEMITA); format: in vivo; details: Bemisia tabaci, read-out: BEMITA 200 ppm (Corrected % Control, rating)
Procedure, shortened: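 Cotton plants (one 3-5 cm true leaf) infested with whitefly eggs (100-300/plant), held 5-6 days at 82° F, 50% RH until crawlers developed. Sprayed to runoff at 200 ppm (acetone stock diluted in 0.025% Tween 20), four plants per treatment. Live nymphs counted after 8-9 days; % control by Abbott's correction versus solvent check.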

SMILES	pest or weed control at 200 ppm ([1]; green peach aphid) [%]	pest or weed control at 200 ppm ([2]; sweetpotato whitefly-crawler) [%]	melting point [°C]	pest or weed control at 200 ppm ([1]; Abbott's correction formula) [%]	pest or weed control at 200 ppm ([2]; Abbott's correction formula) [%]
Cc1nc(-c2cccnc2)sc1NC(=O)OC1CCCCC1 [Compound 375]	< 80	< 80	163 to 167		
COc1ncc(-c2nc(Cl)c(N(C)C(=O)CC[S+](C)[O-])s2)cc1F (stereo not drawn) [Compound 558]			132 to 135	< 80	< 80
CCN(C(=O)C(C)Cn1nc(C)nc1C)c1sc(-c2cccnc2)nc1Cl (stereo not drawn) [Compound 541]			102 to 105	80 to 100	< 80
CSCCC(=O)N(C)c1sc(-c2cnccc2F)nc1Cl [Compound 515]			74 to 76	< 80	< 80
CCNC(=S)N(C)c1sc(-c2cccnc2)nc1C [Compound 449]			137 to 140	80 to 100	80 to 100
CCN(C(=O)C(C)CS(C)(=O)=O)c1sc(-c2cccnc2)nc1Cl (stereo not drawn) [Compound 349]	80 to 100	80 to 100	152 to 154		
CSCCNC(=O)N(C)c1sc(-c2cccnc2)nc1C [Compound 177]	80 to 100	< 80	115 to 119		
CSCCC(=O)N(C(=O)OC(C)(C)C)c1sc(-c2cncc(F)c2)nc1C#N [Compound 494]			105 to 106	< 80	< 80
C=CCN(C(=O)OC(C)(C)C)c1sc(-c2cccnc2)nc1C [Compound 356]	80 to 100	80 to 100	72 to 76		
COCC(C)(C)OC(=O)Nc1sc(-c2cccnc2)nc1C [Compound 199]	80 to 100	80 to 100	120 to 123		
CC(C)(C)OC(=O)N(C(=O)OC(C)(C)C)c1cnc(-c2cccnc2)s1 [Compound 422]	80 to 100	< 80	114 to 117		
C/C=C/C(=O)N(C)c1sc(-c2cccnc2)nc1Br [Compound 526]			121 to 125	80 to 100	80 to 100
Cc1nc(-c2cccnc2)sc1NC(=O)CCCCl [Compound 209]	80 to 100	< 80	144 to 147		
CS[C@H]1CC1C(=O)N(C)c1sc(-c2cncc(F)c2)nc1C (stereo partly drawn) [Compound 216]	80 to 100	80 to 100	88 to 90		
CC(C[S+](C)[O-])C(=O)N(C)c1cnc(-c2cncc(F)c2)s1 (stereo not drawn) [Compound 81]	80 to 100	80 to 100	68 to 70		
Cc1nc(-c2cncc(F)c2)sc1NC(=O)C(C)(C)CS(C)(=O)=O [Compound 144]	80 to 100	< 80	157 to 167		
Cc1nc(-c2cccnc2)sc1NC(=O)Cn1nc(C)c(S(=O)(=O)N(C)C)c1C [Compound 389]	< 80	< 80	214 to 215		
CC(C)C(=O)N(C)c1cnc(-c2cncc(F)c2)s1 [Compound 32]	80 to 100	80 to 100	156 to 158		
CN(C(=O)c1cnn(C)c1)c1sc(-c2cncc(F)c2)nc1Cl [Compound 268]	80 to 100	80 to 100	151 to 155		
Cc1nc(-c2cccnc2)sc1N(C)C(=S)Nc1ccc(Cl)cc1 [Compound 398]	< 80	80 to 100	53 to 54		
CSCC(=O)Nc1sc(-c2cccnc2)nc1C [Compound 372]	80 to 100	80 to 100	164 to 167		
Cc1nc(-c2cccnc2)sc1NC(=O)OCC(F)(F)F [Compound 380]	< 80	< 80	170 to 178		
CSCC(C)(C)C(=O)N(C)c1sc(-c2cccnc2)nc1Cl [Compound 264]	80 to 100	80 to 100	103 to 106		
CC(C)(C)OC(=O)N(C(=O)OC(C)(C)C)c1sc(-c2cncc(F)c2)nc1Cl [Compound 352]	80 to 100	< 80	125 to 128		

SMILES	pest or weed control at 200 ppm ([1]; green peach aphid) [%]	pest or weed control at 200 ppm ([2]; sweetpotato whitefly-crawler) [%]	melting point [°C]	pest or weed control at 200 ppm ([1]; Abbott's correction formula) [%]	pest or weed control at 200 ppm ([2]; Abbott's correction formula) [%]
CN(C(=O)OC(C)(C)C)c1sc(-c2cncc(F)c2)nc1F [Compound 366]	80 to 100	80 to 100	81 to 84		
Cc1nc(-c2cncc(F)c2)sc1NC(=O)C(C)(C)C[S+](C)[O-] (stereo not drawn) [Compound 143]	80 to 100	< 80	160 to 163		
Cc1nc(-c2cncc(F)c2)sc1N(C)C(=S)NC1CC1 [Compound 519, 3-cyclopropyl-1-[2-(5-fluoro-pyridin-3-yl)-4-methyl-thiazol-5-yl]-1-methyl-thiourea]			117 to 119	80 to 100	< 80
CCOC(=O)c1nc(-c2cccnc2)sc1NC(=O)C(C)CSC (stereo not drawn) [Compound 395]	< 80	< 80	93 to 101		
CC(C)(C)OC(=O)Nc1sc(-c2cncc(F)c2)nc1I [Compound 481, tert-butyl 2-(5-fluoropyridin-3-yl)-4-iodothiazol-5-yl carbamate]			148 to 149	< 80	< 80
Cc1nc(-c2cccnc2)sc1NC(=O)c1cnn(C)c1 [Compound 355]	80 to 100	< 80	219 to 222		
CC(C[S+](C)[O-])C(=O)N(C)c1cnc(-c2cccnc2)s1 (stereo not drawn) [Compound 79]	80 to 100	< 80	135 to 140		
CSC(C)(C)CC(=O)N(C)c1sc(-c2cncc(F)c2)nc1C [Compound 212]	80 to 100	80 to 100	73 to 80		
Cc1nn(CC(=O)N(C)c2sc(-c3cccnc3)nc2Cl)c(C)c1S(=O)(=O)N(C)C [Compound 390]	< 80	80 to 100	185 to 186		
CN(C(=O)CC(F)(F)F)c1cnc(-c2cccnc2)s1 [Compound 25]	80 to 100	< 80	126 to 128		
CS(=O)(=O)CCC(=O)Nc1sc(-c2cncc(F)c2)nc1Cl [Compound 459]			239 to 240	80 to 100	< 80
Cc1nc(-c2cncc(F)c2)sc1NC(=O)C(C)C[S+](C)[O-] (stereo not drawn) [Compound 145]	80 to 100	< 80	194 to 198		
CCOC(=O)c1cncc(-c2nc(C)c(NC(=O)OC(C)(C)C)s2)c1 [Compound 160]	< 80	< 80	124 to 128		
Cc1nc(-c2cccnc2)sc1NC(=O)C(C)(C)CS(C)(=O)=O [Compound 101]	80 to 100	80 to 100	134 to 136		
CCCNC(=O)N(C)c1sc(-c2cccnc2)nc1C [Compound 391]	80 to 100	80 to 100	150 to 151		
CCN(C(=O)c1cscn1)c1sc(-c2cccnc2)nc1Cl [Compound 529]			82 to 86	80 to 100	< 80
CC(=O)Nc1sc(-c2cccnc2)nc1C [Compound 186]	< 80	< 80	180 to 182		
CCN(C(=O)C(C)CSC)c1sc(-c2cccnc2)nc1Cl (stereo not drawn) [Compound 316, N-(4-chloro-2-pyridin-3-yl-thiazol-5-yl)-N-ethyl-2-methyl-3-methylsulfanyl-propionamide]	80 to 100	< 80	79 to 81		
CSCCC(=O)Nc1sc(-c2cncc(F)c2)nc1Br [Compound 298]	80 to 100	< 80	160 to 163		
CC(C)C(=O)N(C)c1sc(-c2cncc(F)c2)nc1Cl [Compound 263]	80 to 100	80 to 100	123 to 125		
Cc1nc(-c2cncc(F)c2)sc1NC(=O)OC(C)(C)C [Compound 309]	< 80	< 80	160 to 161		
CSCCC(=O)N(C)c1sc(-c2cncc(F)c2)nc1C#N [Compound 503]			97 to 98	< 80	< 80
CCc1cc(C(=O)N(C)c2sc(-c3cccnc3)nc2Cl)no1 [Compound 383]	< 80	80 to 100	121 to 124		
